One assay relates to NCI-H1417 cells. Description: In vitro cell inhibition assay - H1417 cell proliferation (CellTiter-Glo). In kind it is cell-based. The settings on record: Homo sapiens, NCI-H1417, H1417 small cell lung cancer cell proliferation. The gist of the method:
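Cells exposed to 8 compound concentrations (5-fold dilutions) in BEGM with 10% FBS for 7 days at 37° C., 5% CO2. Viable cells measured by CellTiter-Glo luminescence; inhibition versus no-inhibitor and no-cell controls, IC50 fitted.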

The target in the next assay is HDAC1 (Homo sapiens (Human), UniProt Q13547). Description: In vitro enzyme inhibition assay - HDAC (HDAC-Glo I/II), HDAC1. It is filed as biochemical. The settings on record: read-out: HDAC IC50 (nM) HDAC 1. In outline: (§1)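 Eight compound concentrations (5-fold gradient; 1 mM DMSO stock) were assayed by HDAC-Glo I/II luminescence. IC50 was obtained by four-parameter fitting.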
Chain of HDAC1 (Q13547 whole entry): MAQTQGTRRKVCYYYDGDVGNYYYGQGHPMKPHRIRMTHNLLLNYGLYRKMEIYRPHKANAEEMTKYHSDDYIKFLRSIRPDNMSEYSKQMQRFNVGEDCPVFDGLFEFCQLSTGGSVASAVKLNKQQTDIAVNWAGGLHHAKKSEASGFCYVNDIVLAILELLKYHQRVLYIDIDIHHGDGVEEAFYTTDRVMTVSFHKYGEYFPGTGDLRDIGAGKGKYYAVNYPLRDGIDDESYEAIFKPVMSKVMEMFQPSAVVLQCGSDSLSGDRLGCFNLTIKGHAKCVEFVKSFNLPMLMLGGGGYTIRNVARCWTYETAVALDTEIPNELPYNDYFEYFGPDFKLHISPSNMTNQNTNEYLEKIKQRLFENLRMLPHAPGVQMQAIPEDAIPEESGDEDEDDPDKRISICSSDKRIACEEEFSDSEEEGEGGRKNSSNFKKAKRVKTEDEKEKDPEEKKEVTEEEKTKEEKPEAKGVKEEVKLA

A further assay deals with NCI-H526 cells. Description: In vitro cell inhibition assay - NCI-H526 cell proliferation (CellTiter-Glo). It is filed as cell-based. Particulars: Homo sapiens, NCI-H526, 120 h, H526 small cell lung cancer cell proliferation, 5 days. The gist of the method: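 NCI-H526 cells plated at 1×10^3 per well overnight, then treated with 8 concentrations (5-fold dilutions) in RPMI-640 with 10% FBS for 5 days at 37° C., 5% CO2. Viable cells quantified by CellTiter-Glo luminescence; IC50 fitted from inhibition rates relative to no-inhibitor and no-cell controls.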

Another assay deals with HDAC8 (Homo sapiens (Human), UniProt Q9BY41). Description: In vitro enzyme inhibition assay - HDAC (HDAC-Glo I/II), HDAC8. The settings on record: read-out: HDAC IC50 (nM) HDAC 8. It is filed as biochemical. In outline:
as §1

The next assay concerns the target LSD1 (Homo sapiens (Human), UniProt O60341). Description: In vitro enzyme inhibition assay - LSD1 (HTRF). In kind it is biochemical. Background: TR-FRET usually uses a lanthanide donor and a delayed reading to cut background.
The subject of another assay is DU145 cells. Description: In vitro cell inhibition assay - DU145 cell proliferation (CellTiter-Glo). It is filed as cell-based. Particulars: Homo sapiens, DU-145, Du145 prostate cancer cell proliferation. In outline: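 Viability read-out was CellTiter-Glo luminescence after a 6-day, 37° C exposure of DU145 cells (1×10^3/well, 10% FBS RPMI-640) to 8 compound concentrations in 5-fold steps.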
For orientation: In ATP-based viability assays light output follows the ATP content of the culture.

The next assay relates to NCI-H69 cells. Description: In vitro cell inhibition assay - NCI-H69 cell proliferation (CellTiter-Glo). It is filed as cell-based. Particulars: Homo sapiens, NCI-H69, H69 small cell lung cancer cell proliferation. In outline:
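7-day exposure at 37° C., 5% CO2 to compounds serially diluted 5-fold (8 concentrations) in RPMI-640 containing 20% FBS, after overnight attachment at 1×10^3 cells/well. Read-out: CellTiter-Glo luminescence (RLU); IC50 from curve fit of inhibition rate.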

For the next assay, the target named is pan-HDAC. Description: In vitro enzyme inhibition assay - HDAC (HDAC-Glo I/II), pan-HDAC. It is filed as biochemical. The gist of the method: as §1

Counter-ions that a name gives are not always drawn.

Chain of HDAC8 (Q9BY41 whole entry): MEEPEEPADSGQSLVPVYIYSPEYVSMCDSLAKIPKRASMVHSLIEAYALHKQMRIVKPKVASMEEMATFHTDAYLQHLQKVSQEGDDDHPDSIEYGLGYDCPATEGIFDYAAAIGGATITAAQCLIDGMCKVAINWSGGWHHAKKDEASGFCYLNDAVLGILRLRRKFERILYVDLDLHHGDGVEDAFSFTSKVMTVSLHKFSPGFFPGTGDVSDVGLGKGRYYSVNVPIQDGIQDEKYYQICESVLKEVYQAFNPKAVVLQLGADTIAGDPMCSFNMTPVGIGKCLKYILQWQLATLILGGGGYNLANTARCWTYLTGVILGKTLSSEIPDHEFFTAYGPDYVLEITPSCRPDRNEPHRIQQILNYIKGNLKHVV

Usually IC50 stands for the midpoint of a concentration-inhibition curve. As to `COc1ccc(-c2cnc(N3CCC(C)(NCc4ccc(/C=C/C(=O)NO)cc4)CC3)c(C#N)c2-c2ccc(C#N)c(F)c2)cc1O` [Example 44, (E)-3-(4-(((1-(3-Cyano-4-(4-cyano-3-fluorophenyl)-5-(3-hydroxy-4-methoxyphenyl)pyridin-2-yl)-4-methylpiperidin-4-yl)amino)methyl)phenyl)-N-hydroxyacrylamide formate], the IC50 in the assay with NCI-H1417 cells was found to be 16.1 nM; at HDAC1 it was 45.8 nM; in the assay on NCI-H526 cells, 139 nM; on HDAC8, 188 nM; against LSD1 it was 2.58 nM; with DU145 cells, 567 nM. The IC50 came to 150 nM in the assay with NCI-H69 cells and 27.9 nM at pan-HDAC.
In the case of `COc1ccc(-c2cnc(N3CCC(NCCc4ccc(/C=C/C(=O)NO)cc4)CC3)c(C#N)c2-c2ccc(C#N)c(F)c2)cc1O` [Example 45, (E)-3-(4-(2-((1-(3-Cyano-4-(4-cyano-3-fluorophenyl)-5-(3-hydroxy-4-methoxyphenyl)pyridin-2-yl)piperidin-4-yl)amino)ethyl)phenyl)-N-hydroxyacrylamide hydrochloride], the IC50 with NCI-H1417 cells was found to be 6.48 nM; at HDAC1, 70.6 nM; with NCI-H526 cells it was 288 nM; at HDAC8, 156 nM; on LSD1, 0.36 nM; in the assay on DU145 cells, 1050 nM. In addition, the figures for the IC50 in the assay on NCI-H69 cells and at pan-HDAC were 151 nM and 32.1 nM, respectively.
Regarding `COc1ccc(-c2c(C)nc(N3CCC(NCc4ccc(/C=C/C(=O)NO)cc4)CC3)c(C#N)c2-c2ccc(C#N)c(F)c2)cc1O` [Example 50, (E)-3-(4-(((1-(3-Cyano-4-(4-cyano-3-fluorophenyl)-5-(3-hydroxy-4-methoxyphenyl)-6-methylpyridin-2-yl)piperidin-4-yl)amino)methyl)phenyl)-N-hydroxyacrylamide formate], the IC50 in the assay with NCI-H1417 cells was 5.58 nM; on HDAC1, 118 nM; with NCI-H526 cells, 216 nM; at HDAC8 it was 170 nM; on LSD1, 4.33 nM; in the assay with DU145 cells it was 369 nM. For the same molecule, the IC50 with NCI-H69 cells was 163 nM; against pan-HDAC, 70.7 nM.
For `COc1ccc(-c2cnc(N3CCC(NCc4ccc(/C=C/C(=O)NO)cc4)CC3)c(C#N)c2-c2ccc(C#N)c(F)c2)cc1` [Example 52, (E)-3-(4-(((1-(3-Cyano-4-(4-cyano-3-fluorophenyl)-5-(4-methoxyphenyl)pyridin-2-yl)piperidin-4-yl)amino)methyl)phenyl)-N-hydroxyacrylamide hydrochloride], the IC50 with NCI-H1417 cells worked out at 81.6 nM; on HDAC1, 15.9 nM; in the assay on NCI-H526 cells, 111 nM; at HDAC8 it was 140 nM; at LSD1 it was 47.8 nM; with DU145 cells, 216 nM. The values for the IC50 with NCI-H69 cells and against pan-HDAC were 71 nM and 4.22 nM, respectively.
`Cc1ccc(-c2cnc(N3CCC(NCc4ccc(/C=C/C(=O)NO)cc4)CC3)c(C#N)c2-c2ccc(C#N)c(F)c2)cc1O` [Example 102, (E)-3-(4-(((1-(3-Cyano-4-(4-cyano-3-fluorophenyl)-5-(3-hydroxy-4-methylphenyl)pyridin-2-yl)piperidin-4-yl)amino)methyl)phenyl)-N-hydroxyacrylamide formate]: the IC50 in the assay on NCI-H1417 cells is 3.1 nM; at HDAC1, 16.3 nM; with NCI-H526 cells, 4.27 nM; at HDAC8 it was 178 nM; against LSD1 it was 1.31 nM; with DU145 cells, 7.43 nM. In addition, the IC50 in the assay on NCI-H69 cells is 0.36 nM; on pan-HDAC it was 45.2 nM.
As for `COc1ccc(-c2cnc(N3CCC(NCc4ccc(/C=C/C(=O)NO)cn4)CC3)c(C#N)c2-c2ccc(C#N)c(F)c2)cc1O` [Example 104, (E)-3-(6-((1-(3-Cyano-4-(4-cyano-3-fluorophenyl)-5-(3-hydroxy-4-methoxyphenyl)pyridin-2-yl)piperidin-4-yl)amino)methyl) pyridin-3-yl)-N-hydroxyacrylamide formate], the IC50 with NCI-H1417 cells is 6.58 nM; on HDAC1 it was 5.3 nM; in the assay on NCI-H526 cells, 16.9 nM; at HDAC8 it was 70.1 nM; on LSD1 it was 0.71 nM; with DU145 cells, 24.8 nM. Also, the IC50 was 2.29 nM in the assay on NCI-H69 cells and 10.7 nM on pan-HDAC.
For `COc1ccc(-c2cnc(N3CCC(NCc4ccc(/C=C/C(=O)NO)s4)CC3)c(C#N)c2-c2ccc(C#N)c(F)c2)cc1O` [Example 105, (E)-3-(5-(((1-(3-Cyano-4-(4-cyano-3-fluorophenyl)-5-(3-hydroxy-4-methoxyphenyl)pyridin-2-yl)piperidin-4-yl)amino)methyl)thiophen-2-yl)-N-hydroxyacrylamide formate], the IC50 is 4.48 nM in the assay on NCI-H1417 cells; 120 nM at HDAC1; 124 nM in the assay on NCI-H526 cells; 185 nM on HDAC8; 1.24 nM against LSD1; 317 nM in the assay with DU145 cells. The IC50 was determined as 102 nM with NCI-H69 cells and 114 nM on pan-HDAC.
For the molecule `COc1ccc(-c2cnc(N3CCC(NCc4cnc(/C=C/C(=O)NO)nc4)CC3)c(C#N)c2-c2ccc(C#N)c(F)c2)cc1O` [Example 106, (E)-3-(5-(((1-(3-Cyano-4-(4-cyano-3-fluorophenyl)-5-(3-hydroxy-4-methoxyphenyl)pyridin-2-yl)piperidin-4-yl)amino)methyl)pyrimidin-2-yl)-N-hydroxyacrylamide formate], the IC50 in the assay with NCI-H1417 cells came to 3.29 nM; at HDAC1, 3.81 nM; in the assay on NCI-H526 cells it was 7.09 nM; on HDAC8, 13.1 nM; against LSD1, 2.62 nM; in the assay with DU145 cells it was 13.6 nM. The IC50 was found to be 3.48 nM in the assay with NCI-H69 cells and 4.85 nM against pan-HDAC.
With `COc1ccc(-c2cnc(N3CCC(NCc4ccc(/C=C/C(=O)NO)c(OC)c4)CC3)c(C#N)c2-c2ccc(C#N)c(F)c2)cc1O` [Example 108, (E)-3-(4-(((1-(3-Cyano-4-(4-cyano-3-fluorophenyl)-5-(3-hydroxy-4-methoxyphenyl)pyridin-2-yl)piperidin-4-yl)amino)methyl)-2-methoxyphenyl)-N-hydroxyacrylamide formate], the IC50 in the assay with NCI-H1417 cells was 4.4 nM; at HDAC1, 25.8 nM; in the assay with NCI-H526 cells it was 13.8 nM; on HDAC8 it was 93.1 nM; on LSD1, 2.3 nM; in the assay with DU145 cells it was 28.6 nM. The results for the IC50 in the assay with NCI-H69 cells and against pan-HDAC were 16 nM and 26.6 nM, respectively.
As to `Cc1noc2cc(-c3cnc(N4CCC(NCc5ccc(/C=C/C(=O)NO)cc5)CC4)c(C#N)c3-c3ccc(C#N)c(F)c3)c(F)cc12` [Example 110, (E)-3-(4-((1-(3-Cyano-4-(4-cyano-3-fluorophenyl)-5-(5-fluoro-3-methylbenzo[d]isoxazol-6-yl)pyridin-2-yl)piperidin-4-yl)amino)methyl) phenyl)-N-hydroxyacrylamide formate], the IC50 in the assay on NCI-H1417 cells was determined as 2.7 nM; at HDAC1, 156 nM; in the assay with NCI-H526 cells it was 127 nM; at HDAC8 it was 137 nM; at LSD1 it was 1.05 nM; in the assay with DU145 cells, 187 nM. For the same molecule, the figures for the IC50 in the assay on NCI-H69 cells and on pan-HDAC were 82.7 nM and 57.3 nM, respectively.
As for `N#Cc1ccc(-c2c(-c3ccc(C4CC4)c(O)c3)cnc(N3CCC(NCc4ccc(/C=C/C(=O)NO)cc4)CC3)c2C#N)cc1F` [Example 111, (E)-3-(4-((1-(3-Cyano-4-(4-cyano-3-fluorophenyl)-5-(4-cyclopropyl-3-hydroxyphenyl)pyridin-2-yl)piperidin-4-yl)amino)methyl) phenyl)-N-hydroxyacrylamide formate], the IC50 with NCI-H1417 cells amounted to 1.98 nM; at HDAC1, 83.1 nM; in the assay with NCI-H526 cells, 16.2 nM; on HDAC8, 358 nM; at LSD1, 1.56 nM; in the assay with DU145 cells it was 14.2 nM. Further, the values for the IC50 in the assay on NCI-H69 cells and at pan-HDAC were 3.41 nM and 65.3 nM, respectively.
For the molecule `COc1ccc(-c2cnc(N3CCC(NCc4cnc(/C=C/C(=O)NO)s4)CC3)c(C#N)c2-c2ccc(C#N)c(F)c2)cc1O` [Example 112, (E)-3-(5-((1-(3-Cyano-4-(4-cyano-3-fluorophenyl)-5-(3-hydroxy-4-methoxyphenyl)pyridin-2-yl)piperidin-4-yl)amino)methyl) thiazol-2-yl)-N-hydroxyacrylamide formate], the IC50 in the assay on NCI-H1417 cells stood at 4.14 nM; at HDAC1 it was 26.3 nM; with NCI-H526 cells, 63.5 nM; at HDAC8, 81.4 nM; against LSD1, 2.66 nM; in the assay with DU145 cells, 86.8 nM. The values for the IC50 in the assay with NCI-H69 cells and at pan-HDAC were 32.7 nM and 26.9 nM, respectively.

These data come from US20250304549A1, “HYDROXYAMIDE DERIVATIVE AND USE THEREOF” (SICHUAN HUIYU PHARMACEUTICAL CO., LTD., priority 2022, published 2025).
